Test results: patent publication US20060263453A1, “Methods and compositions for modulating glutamate dehydrogenase” (priority 2004, published 2006)

Legend:
GDH = target: T1, GDH (Bos taurus, UniProt P00366); assay: steady state kinetic analysis of reductive amination, NADH or 2-oxoglutarate varied (Lineweaver-Burke plots); type: biochemical, bovine; design: Y-intercept (Lineweaver-Burke): unit not given beside the values
T1 construct: purchased Sigma Aldrich Chemical Company (St. Louis, Mo.)
Method: (§1) First, aliquots of GDH were extensively dialyzed against 0.1M sodium phosphate buffer, pH 7.0, which contained 1 mM ethylenediaminetetraacetic acid (EDTA). The enzyme concentrations were adjusted to 1 mg/ml and the amount of enzyme added to the reaction mixture, for kinetic analysis, was adjusted to yield optimal steady state velocity measurements. All solutions were made immediately prior to use. Enzyme assays were performed by monitoring reduced coenzyme absorbance at 340 nm using a Shimadzu UV-1601 spectrophotometer. The reductive amination reactions were performed in 3 mL volumes at pH 7.0 in the presence of 0.1 mM nicotinamide adenine dinucleotide (NADH), 50 mM NH4Cl, and 5 mM 2-oxoglutarate. The rate of NADH oxidation was calculated using an extinction coefficient of 6.22 mM^−1 cm^−1.
In this Example, EGCG was added to a reaction (at a final concentration of 0.0, 0.3, or 0.6 μM), along with various concentrations of NADH or 2-oxoglutarate, to further ascertain how EGCG inhibits the reductive amination reaction catalyzed by GDH. Such kinetic analysis was carried out as described above in Example 1.

[1] = system: GDH from Tetrahymena thermophilia (tGDH); assay: kinetic analysis of Tetrahymena GDH; type: biochemical; conditions: FIG. 4
Method: as §1
To this end, EGCG was tested against five different HI/HA mutant forms of GDH, namely, R265K, R269C, E296A, S448P, and H454Y. In addition, EGCG was tested against human wild type GDH (“WT”), GDH from Tetrahymena thermophilia (“tGDH”) that, like the HI/HA mutant GDH enzymes, is not regulated by GTP, and a human GDH that was missing a certain 48 residue ‘antenna-like’ feature protruding from the top of each of its six subunits that is necessary for ADP, GTP, and Palmitoyl CoA regulation. […]

rat islets [2] = assay: BCH-stimulated insulin secretion in perifused islets (120 minute run-down, BCH ramp); type: cell-based, Wistar rat
Method: In this Example, adult male Wistar rat islets were isolated by collagenase digestion and initially cultured in glucose-free RPMI […] medium (Sigma Aldrich Chemical Company, St. Louis, Mo.). The culture medium was supplemented with 10% fetal bovine serum, 2 mM glutamine, 100 units/mL penicillin, and 50 μg/mL streptomycin.
The islets were then perifused in the absence of glucose and in the presence of 2 mM glutamine (and the different concentrations of EGCG or EGC shown in FIG. 5) for run-down periods of 120 minutes prior to stimulation with a BCH ramp (0 to 10 mM, 0.2 mM/minute). Specifically, 100 cultured rat islets were loaded onto nylon filters in a small chamber and perifused in a Krebs-Ringer bicarbonate buffer (115 mmol/liter NaCl, 24 mmol/liter NaHCO3, 5 mmol/liter KCl, 1 mmol/liter MgCl2, 2.5 mmol/liter CaCl2, in 10 mM HEPES, pH 7.4) with 0.25% bovine serum albumin at a flow rate of 2 mL/minute. Perifusate solutions were gassed with 95% O2/5% CO2 and maintained at 37° C. Finally, the islets were exposed to 30 mM KCl. Samples were collected every minute to measure insulin levels by radioimmunoassay.

islets = assay: [U-14C]-glutamine oxidation in islets; type: cell-based, rat
Method: In a first experiment, a batch of 100 islets were incubated with glucose-free Krebs-Ringer bicarbonate buffer, as described herein, containing 20 μM EGCG or 20 μM EGC and 2 mM glutamine for 60 minutes. The islets were then incubated in the presence of varying concentrations of BCH (shown in FIG. 7A) for 60 minutes, and for an additional 60 minutes in the presence of 2 mCi [U-^14C]-glutamine (NEN-Life Science Products, UK). Next, [U-^14C]-glutamine oxidation in the incubated islets was measured. A trap filter was placed in each tightly sealed glass tube of the perifusion apparatus to collect the ^14CO2 produced by the islets, and the amount of radioactivity was determined by liquid scintillation counting. The results are summarized in FIG. 7A, and are presented as means±S.E. from 4 separate experiments. […] The islets were then incubated in the presence of 10 mM BCH (or no BCH—to measure “baseline” glutamine oxidation levels) for 60 minutes. The islets were then incubated for an additional 60 minutes in the presence of 2 mCi [U-^14C]-glutamine (NEN-Life Science Products, UK). Next, [U-^14C]-glutamine oxidation in the incubated islets was measured, as described above.

rat islets [3] = assay: glucose stimulated insulin secretion (GSIS), short run-down (50 minutes), glucose ramp; type: cell-based; conditions: 20 μM, FIGS. 8A and 8B
Method: In this Example, the effect of EGCG on glucose stimulated insulin secretion (GSIS) was examined. Isolated rat islets were cultured with 20 mM glucose (FIG. 8A) and 10 mM glucose (FIG. 8B) for 3 days, then perifused in the absence of glucose for 50 minutes and in the presence of 0 μM EGCG; 20 μM EGCG; or 20 μM EGC. Next, the islets were stimulated by a glucose ramp (0 to 25 mM, 0.5 mM/minute). Finally, the islets were exposed to 30 mM KCl. Insulin levels were measured every minute by radioimmunoassay. The results shown in FIG. 8A are presented as means±S.E. for 100 islets from 3 separate experiments (and means±S.E. for 100 islets from 1 experiment for FIG. 8B).

rat islets [4] = assay: insulin secretion and oxygen consumption during glucose stimulation; type: cell-based
Method: Next, insulin secretion and oxygen consumption were measured, as described herein, during glucose stimulation to confirm the above results. Isolated rat islets were isolated and cultured, as described above, with 10 mM glucose for 3 days and subsequently perifused in the oxygen consumption measurement apparatus described above. […] In general, FCCP is known to stimulate Mg^2+-ATPase activity, inhibit β-amyloid production, and mimic the effect of selective glutamate agonist N-methyl-D-aspartate (NMDA) on mitochondrial superoxide production. The results shown in FIG. 9 are presented as means±S.E. for 1000 islets from 3 separate experiments. Due to the high density of data, S.E. is only shown in every 20 samples.

[5] = 2-oxoglutarate varied, [EGCG] 0.3 μM
[6] = 2-oxoglutarate varied, [EGCG] 0.6 μM

T1 sequence (P00366 58-558): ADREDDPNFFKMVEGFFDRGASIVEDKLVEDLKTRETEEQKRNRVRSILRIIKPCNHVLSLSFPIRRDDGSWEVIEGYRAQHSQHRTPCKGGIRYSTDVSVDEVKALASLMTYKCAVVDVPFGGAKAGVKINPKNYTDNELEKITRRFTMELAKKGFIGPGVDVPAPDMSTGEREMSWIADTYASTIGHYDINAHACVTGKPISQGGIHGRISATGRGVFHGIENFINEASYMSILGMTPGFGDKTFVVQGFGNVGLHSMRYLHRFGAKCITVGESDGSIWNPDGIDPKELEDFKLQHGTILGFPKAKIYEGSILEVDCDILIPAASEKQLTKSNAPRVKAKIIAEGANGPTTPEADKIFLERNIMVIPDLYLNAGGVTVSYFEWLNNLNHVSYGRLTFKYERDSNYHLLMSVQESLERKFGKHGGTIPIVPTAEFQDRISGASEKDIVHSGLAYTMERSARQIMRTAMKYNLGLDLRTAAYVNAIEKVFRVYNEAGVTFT

O=C(O[C@@H]1Cc2c(O)cc(O)cc2O[C@@H]1c1cc(O)c(O)c(O)c1)c1cc(O)c(O)c(O)c1 [EGCG, (2R,3R)-2-(3,4,5-Trihydroxyphenyl)-3,4-dihydro-1 (2H)-benzopyran-3,5,7-triol 3-(3,4,5-trihydroxybenzoate)]
Slope (Lineweaver-Burke) (GDH; [5]): 0.039 ± 0.002
Y-intercept (Lineweaver-Burke) (GDH; [5]): 0.24 ± 0.1
Slope (Lineweaver-Burke) (GDH; [6]): 0.15 ± 0.02
Y-intercept (Lineweaver-Burke) (GDH; [6]): 0.097 ± 0.5
Slope (Lineweaver-Burke) (GDH; NADH varied, [EGCG] 0.3 μM): 0.0026 ± 0.0002
Y-intercept (Lineweaver-Burke) (GDH; NADH varied, [EGCG] 0.3 μM): 0.15 ± 0.01
Slope (Lineweaver-Burke) (GDH; NADH varied, [EGCG] 0.6 μM): 0.0040 ± 0.0003
Y-intercept (Lineweaver-Burke) (GDH; NADH varied, [EGCG] 0.6 μM): 0.2000 ± 0.02
mode of inhibition (GDH; versus NADH and 2-oxoglutarate): non-competitive inhibition
inhibition of tGDH [1]: inhibited
intrinsic ability of the cells to secrete insulin (depolarization by KCl) (rat islets [2]; 30 mM KCl): did not affect
BCH stimulation of insulin secretion blocked (rat islets [2]; FIG. 5): blocked
block of BCH stimulation of glutaminolysis (glutamine oxidation) (islets; 20 μM, 2 mM glutamine, FIG. 7A): completely blocked
effect on basal levels of glutamine oxidation (islets; 3 mM glutamine, no BCH, FIG. 7D): does not have an effect
effect on 10 mM BCH-stimulated glutamine oxidation (islets; 3 mM glutamine, FIG. 7B, 7C): inhibits glutamine oxidation in a dose-dependent manner
concentration of maximal effects on glutamine oxidation (islets; 10 mM BCH, 3 mM glutamine, FIG. 7B): approximately 20 μM
effect on GSIS (rat islets [3]): neither EGC nor EGCG affected
effect on GSIS (rat islets [4]; FIG. 9A): does not affect
effect on respiration during glucose stimulation (rat islets [4]; FIG. 9B): does not affect
